The test system of test [1] is acyl-CoA:cholesterol acyltransferase (ACAT). The test can be described thus: inhibitory effect in the enzymatic activities of acyl-CoA:cholesterol acyltransferase (ACAT). Type of test: biochemical. The following applies: rat liver microsomes, 2 min; for Inhibitory effect to ACAT (inhibitory ratio), Table 5: head prints 10^14 M; for Inhibitory effect to ACAT (inhibitory ratio): 10^-4 M, 100 µM. On the procedure:
Test for determining inhibitory effect in the enzymatic activities of acyl-CoA:cholesterol acyltranferase (ACAT)
50 Microliters of each one of the test compounds was added to rat liver microsomes fraction (containing 0.4 mg of protein) of which volume was adjusted to 150 microliters by adding 0.15 M-potassium phosphate buffer solution (pH 7.4), then the mixture was incubated at 37° C. for 10 minutes. After the incubation, the reaction was started by adding 50 microliters of 0.15 M-potassium phosphate buffer solution (pH 7.4) containing 18 nM [1-^14 C] oleoyl-CoA (10 mCi/mM) and 0.6 mg BSA (bovine serum albumin) at 37° C. for 2 minutes. The reaction was terminated by adding 1 ml of ethanol, then 4 ml of n-hexane was added and shaken, then the n-hexane layer (upper layer) was concentrated to the volume of 3 ml under nitrogen gas stream, thus obtained cholesteryl oleate was isolated by means of a silica gel thin chromatography [developing solvent=petroleum ether: diethyl ether (95:5)] and the radioactivity was measured by using a liquid scintillation counter.
(§1) Control test was also conducted by the procedures similar to those mentioned above in the test group, except that each one of the test compounds was not used.
Inhibitory effect in the enzymatic activities of acyl-CoA:cholesterol acyltransferase (ACAT) performed by each one of the test compounds was calculated, in terms of inhibitory ratio (%), from the formula on the basis of the radioactivity of the control group as follows: [formula] (wherein
[e] is a radioactivity of the control group, and
[f] is a radioactivity of the test group).
For orientation: Liver microsomes are a subcellular fraction often used to study metabolism.

The test system of test [2] is biosynthetic pathway of cholesterol. The test can be described thus: inhibitory effect in biosynthetic pathway of cholesterol. The class given is biochemical. The settings on record: 10^-4 M; rat liver microsomes and soluble fraction; 90 min, 100 µM. On the procedure:
Test for determining inhibitory effect in biosynthetic pathway of cholesterol
Each one of the test compounds was added to rat liver microsomes fraction (containing 0.2 mg of protein) and soluble fraction (containing 2 mg of protein), then the volume of the mixture was adjusted to 100 microliters by adding 0.1 M-potassium phosphate buffer solution (pH 7.4), then this mixture was incubated at 37° C. for 10 minutes.
After the incubation, the reaction was started by adding 200 microliters of a solution containing 1 mM ATP, 10 mM glucose-1-phosphate, 6 mM glutathione, 6 mM MgCl2, […], 0.25 mM […], 0.25 mM NADP, and 1 mM [1-^14 C] sodium acetate (3.0 mCi/mM).
The whole mixture was incubated at 37° C. for 90 minutes, then the reaction was terminated by adding […] of 15%-KOH (a 95% ethanol solution), next 2 mg of cholesterol was added thereto, saponified at 75° C. for 1 hour, and cholesterol was extracted with petroleum ether, the extract was concentrated to dryness. To the residue thus obtained was added with 2.5 ml of a mixture of acetone-diethyl ether (1:1) and 2.5 ml of 1%-digitonin (a 50% ethanol solution), then this solution was allowed to stand for 1 hour in cooling condition by using ice-water to precipitate cholesterol. The precipitate was washed with acetone, a mixture of acetonediethyl ether (1:1) and diethyl ether in this order, then the radioactivity of the residue was measured by using a liquid scintillation counter.
as §1
Inhibitory effect in biosynthetic pathway of cholesterol performed by each one of the test compounds was calculated, in terms of inhibitory ratio (%), from the formula on the basis of the radioactivity of the control group as follows: [formula] (wherein
[c] is a radioactivity of the control group, and
[d] is a radio activity of the test group).

For test [3], the system named is plasma high density lipoprotein cholesterol (HDLC). The test can be described thus: increasing rate of plasma high density lipoprotein cholesterol (HDLC) concentration. The settings on record: 300 mg/kg/day oral for 2 days; rat; vs control. The class given is in vivo, male Wistar rats. Here is the method:
Increasing rate (%) of plasma high density lipoportein cholesterol (HDLC) concentration which is performed by a carboxamide compound of the general formula (I) of the present invention was conducted as follows.
Seven-week-old male Wistar rats were used.
The test compound was orally administered for 2 days at a daily dose of 300 mg/kg body weight to each of six (6) rats in test group. The dosing vehicle was 0.5% sodium carboxylmethylcellulose solution, and the dosing volume was 5 ml/kg body weight.
Similar to the procedures taken to the rats in the test group, to each one of six (6) rats in control group was orally administered 0.5% sodium carboxymethylcelluose solution only.
On day 2, after fasting for 20 hours, blood was drawn from the jagular sinus with a heparinized syringe. Plasma was obtained by centrifugation.
Plasma HDLC was determined after precipitation of other lipid fraction with heparin and Ca^2+ by using HDL-C Kit-N (manufactured by Hihon Shoji Kabushiki Kaisha).
Increasing rate (%) of plasma HDLC concentration performed by a test compound was calculated from the formula as follows: [formula]

In test [4] the test system is Triton WR-1339-induced hyperlipidemia in rat. The test can be described thus: antilipotropic effect in Triton WR-1339-induced hyperlipidemia in rat. Type of test: in vivo, Wistar-strain male rats. The following applies: 50 mg/kg oral, vs control. An excerpt: Wistar-strain male rats of 5-9 week age were used as test animals. One test group consisting of six (6) rats.
[a] is a determined value obtained from the control group, and
[b] is a determined value obtained from the test group).

[5] abbreviates: 24 hours after Triton WR-1339 (400 mg/kg, tail vein), read-out: lowering ratio of serum triglycerides, 24 hours after Triton WR-1339.
[6] abbreviates: 24 hours after Triton WR-1339 (400 mg/kg, tail vein), read-out: lowering ratio of total serum cholesterol, 24 hours after Triton WR-1339.
Where [7] appears, read: 48 hours after Triton WR-1339 (400 mg/kg, tail vein), read-out: lowering ratio of serum triglycerides, 48 hours after Triton WR-1339.
Where [8] appears, read: 48 hours after Triton WR-1339 (400 mg/kg, tail vein), read-out: lowering ratio of total serum cholesterol, 48 hours after Triton WR-1339.
Where [9] appears, read: 24 hours after Triton WR-1339 (400 mg/kg, tail vein).
Where [10] appears, read: 48 hours after Triton WR-1339 (400 mg/kg, tail vein).

Where two headings read alike, the source gives them in different places.

Turning to `CCCCCCNC(=O)c1ccc(C(C)P(=O)(OC(C)C)OC(C)C)cc1` (centres unmarked) [compound 26], the “Inhibitory effect to ACAT (inhibitory ratio), Table 5” value in test [1] came out at 88.9%. The “Inhibitory ratio of cholesterol biosynthesis” value in test [2] was 67.4%.

As for `CCOP(=O)(Cc1ccc(C(=O)Nc2ccc(C#N)cc2Cl)cc1)OCC` [compound 73], in test [3], the “Increasing rate (%) of high density lipids concentration in the serum (plasma HDLC)” value (shortened to “Increasing rate (%)”) amounted to 187%.

On to `CCOP(=O)(Cc1cccc(C(=O)Nc2ccccc2)c1)OCC` [compound 64], for which the “Inhibitory effect to ACAT (inhibitory ratio), Table 5” value in test [1] was found to be 37.6%.

Consider `CCOP(=O)(Cc1ccc(C(=O)N2CCN(c3ccc(Cl)cc3)CC2)cc1)OCC` [compound 58], for which the “Inhibitory effect to ACAT (inhibitory ratio)” value in test [1] is given as 56.6%. In addition, the “Inhibitory ratio of cholesterol biosynthesis” value in test [2] was determined as 58.4%.

As to `CCOP(=O)(Cc1ccc(C(=O)N(c2ccccc2)C(C)C)cc1)OCC` [compound 32], the “Inhibitory effect to ACAT (inhibitory ratio), Table 5” value in test [1] amounted to 20.1%. Besides, in test [2], the “Inhibitory ratio of cholesterol biosynthesis” value is 36.4%.

For `CCOP(=O)(Cc1ccc(C(=O)Nc2ccc(C#N)cc2I)cc1)OCC` [compound 77], the “Increasing rate (%)” value in test [3] is listed as 184%.

For `CC(C)OP(=O)(Cc1ccc(C(=O)NCCc2ccccc2)cc1)OC(C)C` [compound 11], the “Inhibitory effect to ACAT (inhibitory ratio), Table 5” value in test [1] was determined as 83.3%. Besides, in test [2], the “Inhibitory ratio of cholesterol biosynthesis” value stood at 67.4%. Further, the inhibition in vivo at 50 mg/kg came to 0% in test [4] (setting [5]), 13.5% in test [4] (setting [6]), 56.8% in test [4] (setting [7]) and 32.6% in test [4] (setting [8]).

With `CCOP(=O)(Cc1ccc(C(=O)Nc2ccc(I)cc2C#N)cc1)OCC` [compound 74], the “Increasing rate (%)” value in test [3] was 187%.

Take `CCCCCCNC(=O)c1ccc(C(C)P(=O)(OCC)OCC)cc1` (centres unmarked) [compound 63]: the “Inhibitory effect to ACAT (inhibitory ratio)” value in test [1] is recorded as 88.9%. Moreover, in test [2], the “Inhibitory ratio of cholesterol biosynthesis” value is 58.9%.

Take `CCOP(=O)(Cc1ccc(C(=O)Nc2ccc(Cl)cc2C#N)cc1)OCC` [compound 72]: in test [3], the “Increasing rate (%)” value came to 196%.

Regarding `CCOP(=O)(Cc1ccc(C(=O)N(Cc2ccccc2F)c2ccccc2)cc1)OCC` [compound 41], the “Inhibitory effect to ACAT (inhibitory ratio)” value in test [1] was 84.0%. Further, the “Inhibitory ratio of cholesterol biosynthesis” value in test [2] amounted to 84.2%.

As to `CCOP(=O)(Cc1ccc(C(=O)N(c2ccccc2)c2ccccc2)cc1)OCC` [compound 36], the “Inhibitory effect to ACAT (inhibitory ratio), Table 5” value in test [1] was 63.1%. In addition, the “Inhibitory ratio of cholesterol biosynthesis” value in test [2] was determined as 61.1%.

Take `CCOP(=O)(Cc1ccc(C(=O)Nc2cccc(C(F)(F)F)c2)cc1)OCC` [compound 27]: the “Inhibitory effect to ACAT (inhibitory ratio), Table 5” value in test [1] is recorded as 39.5%. The “Inhibitory ratio of cholesterol biosynthesis” value in test [2] came to 36.2%.

For the compound `O=C(Nc1c(Cl)cccc1Cl)c1ccc(CP(=O)(Oc2ccccc2)Oc2ccccc2)cc1` [compound 29], the “Inhibitory effect to ACAT (inhibitory ratio), Table 5” value in test [1] is 73.9%. The “Inhibitory ratio of cholesterol biosynthesis” value in test [2] is reported as 35.8%.

Consider `CCOP(=O)(Cc1ccc(C(=O)N(Cc2ccccc2)c2ccccc2)cc1)OCC` [compound 65], for which, in test [1], the “Inhibitory effect to ACAT (inhibitory ratio)” value is 87.7%.

For `CCOP(=O)(Cc1ccc(C(=O)NCCC(c2ccccc2)c2ccccc2)cc1)OCC` [compound 31], the “Inhibitory effect to ACAT (inhibitory ratio), Table 5” value in test [1] came out at 87.7%. Further, the “Inhibitory ratio of cholesterol biosynthesis” value in test [2] came to 65.4%.

Regarding `CCOP(=O)(Cc1ccc(C(=O)N(Cc2ccccc2)c2ccc([N+](=O)[O-])cc2)cc1)OCC` [compound 10], the “Inhibitory effect to ACAT (inhibitory ratio)” value in test [1] is listed as 69.4%. Further, the “Inhibitory ratio of cholesterol biosynthesis” value in test [2] was determined as 75.6%. For the same compound, the inhibition in vivo at 50 mg/kg turned out to be 26.9% in test [4] (setting [5]), 0% in test [4] (setting [6]), 68.7% in test [4] (setting [7]) and 16.1% in test [4] (setting [8]).

In the case of `CCOP(=O)(Cc1ccc(C(=S)Nc2ccccc2)cc1)OCC` [compound 70], the “Inhibitory effect to ACAT (inhibitory ratio)” value in test [1] is reported as 39.4%.

Regarding `CCOP(=O)(Cc1ccc(C(=O)N(Cc2ccccc2)c2cccc(C(F)(F)F)c2)cc1)OCC` [compound 50], the “Inhibitory effect to ACAT (inhibitory ratio)” value in test [1] was found to be 84.8%. For the same compound, the “Inhibitory ratio of cholesterol biosynthesis” value in test [2] amounted to 78.2%.

Consider `CCOP(=O)(Cc1ccc(C(=O)N(Cc2ccccc2)C2CCCCC2)cc1)OCC` [compound 45], for which the “Inhibitory ratio of cholesterol biosynthesis” value in test [2] came to 76.9%.

On to `CCOP(=O)(Cc1ccc(C(=O)Nc2ccc(C)cc2)cc1)OCC` [compound 22], for which the “Inhibitory ratio of cholesterol biosynthesis” value in test [2] stood at 32.2%. In addition, the inhibition in vivo at 50 mg/kg in test [4] (setting [5]) came out at 38.6%; in test [4] (setting [6]), 6.9%; in test [4] (setting [7]), 28.1%; in test [4] (setting [8]) it was 29%.

Take `CCOP(=O)(Cc1ccc(C(=O)N(Cc2ccccc2)c2ccccc2F)cc1)OCC` [compound 47]: in test [2], the “Inhibitory ratio of cholesterol biosynthesis” value was found to be 67.2%.

For the compound `CCOP(=O)(Cc1ccc(C(=O)N(Cc2cccc(C(F)(F)F)c2)c2ccccc2)cc1)OCC` [compound 40], in test [2], the “Inhibitory ratio of cholesterol biosynthesis” value was found to be 91.6%.

On to `CCOP(=O)(Cc1ccc(C(=O)Nc2ccccc2C(=O)O)cc1)OCC` [compound 66], for which the “Inhibitory effect to ACAT (inhibitory ratio)” value in test [1] turned out to be 26.0%.

With `CCOP(=O)(Cc1ccc(C(=O)N(Cc2ccccc2)c2cc(OC)c(OC)c(OC)c2)cc1)OCC` [compound 52], in test [1], the “Inhibitory effect to ACAT (inhibitory ratio)” value is listed as 60.5%. The “Inhibitory ratio of cholesterol biosynthesis” value in test [2] was determined as 65.6%.

As for `CCOP(=O)(Cc1ccc(C(=O)N2CCN(Cc3ccccc3)CC2)cc1)OCC` [compound 61], the “Inhibitory ratio of cholesterol biosynthesis” value in test [2] amounted to 58.3%.

On to “4-diethoxyphosphinoylmethyl-N-(4-bromo-2-cyanophenyl)benzamide [Test compound No. 71]”, for which, in test [1], the “Inhibitory effect to ACAT (inhibitory ratio), Table 5” value is on record as 79.2%. Besides, the “Inhibitory ratio of cholesterol biosynthesis” value in test [2] was determined as 56.6%. Also, in test [4] (setting [9]), the “lowering ratio of serum triglycerides, 24 hours after Triton WR-1339” value came to 85.3% and the “lowering ratio of total serum cholesterol, 24 hours after Triton WR-1339” value came out at 51.6%. For the same compound, in test [4] (setting [10]), the “lowering ratio of serum triglycerides, 48 hours after Triton WR-1339” value is 95.9% and the “lowering ratio of total serum cholesterol, 48 hours after Triton WR-1339” value was 67.9%.

In the case of `CCOP(=O)(Cc1ccc(C(=O)N(Cc2ccc(C)cc2)c2ccccc2)cc1)OCC` [compound 37], the “Inhibitory ratio of cholesterol biosynthesis” value in test [2] is reported as 82.8%.

As to `CCOP(=O)(Cc1ccc(C(=O)N(Cc2ccc([N+](=O)[O-])cc2)c2ccccc2)cc1)OCC` [compound 39], the “Inhibitory ratio of cholesterol biosynthesis” value in test [2] is given as 74.6%.

These data come from patent US5081112A, “Method for treating hyperlipidemia” (Otsuka Pharmaceutical Factory Inc., priority 1986, dated 1992).
